Earlier results on one molecule are cited in patent US5217965A, “Stabilized solid dosage forms of choline metal carboxymethylcellulose salicylate compositions” (Euroceltique, S.A., priority 1991, dated 1993).

The conditions of this series: background.

On to `C[N+](C)(C)CCO.O=C([O-])c1ccccc1O` [Choline salicylate], for which the Hygroscopicity entry was “highly hygroscopic”.
